Test results: ChEMBL document CHEMBL3507680, “University of Dundee, Gates Library screen for HepG2 cell viability”

Assay: Human HepG2 cell viability assay in 384 well format
Format: toxicity, cell-based
Set-up: dose 125 nL, time 70.5 hour; concentration not given beside the values
Conditions: HepG2 cells, read-out: Inhibition

SMILES	cytotoxicity at 70.5 h [%]
O=C(c1cnc(-c2cccs2)s1)N1CCCC(n2ccnc2)C1 (stereo unspecified)	-8.31
Cn1ccnc1C(=O)NCc1cc(=O)n2c(n1)CN(CC1CC1)CCC2	-4.68
Cc1cc(N2CCC3(CCC(=O)N(CC4CC4)C3)CC2)nc(N)n1	-9.89
Cc1ccc(C2CCCCCN2CCCS(C)(=O)=O)o1 (stereo unspecified)	-10.5
COC[C@]1(O)CCN(C2CCN(c3ccc(F)c(F)c3)CC2)CC1(C)C	22.6
CN(C)S(=O)(=O)NCc1nn(CCN2CCCC2)c(=O)c2ccccc12	-12.7
CC(CNC(=O)Nc1ccc(C#N)cc1)N1CCc2ccccc21 (stereo unspecified)	4.28
Cc1ccc(OCCCC(=O)Nc2nonc2C)cc1C	12
Cc1cc(-c2nn(C)c(Cl)c2CN2CCC3(CC2)[C@H](O)C[C@@H]3O)no1	-4.3
O=C(Nc1ccc(F)cc1F)NC1(CO)CCOCC1	-4.4
CC1=Nc2c(c(=O)[nH]n2C(C)C)C(c2ccc(F)c(F)c2)S1 (stereo unspecified)	-4.57
O=C(c1ccncc1)N1CCOC2(COCCN(c3cncnc3)C2)C1 (stereo unspecified)	-11.1
CN1CCN(Cc2nnc(C3CCN(CC4CC4)CC3)n2C)CC1	-2.48
O=C(NCCCO)C1(CC2CC(c3ccc(F)cc3)=NO2)CCOCC1 (stereo unspecified)	-5.38
CN1CCN(c2cc(CNC(=O)c3cnccn3)ccn2)CC1	-3.35
COc1ccc(C(=O)NS(=O)(=O)c2cncc(Br)c2)c(OC)c1	-7.26
COc1ccc(C(C)N2CCC(CO)CC2)cc1Cl (stereo unspecified)	-2.59
O=C1CN(C(=O)C2CN(c3ccccc3)CCO2)CCN1 (stereo unspecified)	-5.72
CCN(Cc1ccncc1)CC1(O)CCN(C(=O)c2cnn(C)c2)C1 (stereo unspecified)	-4.91
Cc1noc(CNC(=O)[C@@H](C)NC(=O)OC(C)(C)C)n1	-2.55
COc1ccc(Br)c(C(=O)N2CCC(c3n[nH]c(C4CC4)n3)CC2)c1	3.76

SMILES	cytotoxicity at 70.5 h [%]
Cc1ccc(C(=O)N2CCC(c3nccn3Cc3ccncc3)CC2)s1	-8.45
c1cc(CN2C[C@@H]3OCCN(CC4CC4)[C@@H]3C2)n[nH]1	-7.71
CN(C)c1ccc(NC(=O)C2CN(Cc3ccccc3)CCO2)cn1 (stereo unspecified)	-3.21
COc1cccc(CC(=O)N2CCN(C)c3ncccc3C2)c1	1.87
CC(C)c1nc(C2CCCN(C(=O)CCn3ccnc3)C2)no1 (stereo unspecified)	13.6
CCC(O)CN1CCN(C(=O)c2sccc2C(C)C)CC1 (stereo unspecified)	-7.94
COc1ccc(-c2nc(CN3CC(n4nc(C)cc4C)C3)no2)cc1	-5.57
CCOCCN1CCN(Cc2nnc(C3CC3)o2)CC1C (stereo unspecified)	-3.62
CN1CCCC(c2cccc(Cc3ccccc3Cl)n2)C1 (stereo unspecified)	-3.75
COc1ccc2cc(C(=O)NCCc3nc(C)no3)[nH]c2c1	5.04
O=C(CC1COCCN1)N1CCCN(C2Cc3ccccc3C2)CC1 (stereo unspecified)	-3.92
COc1cc(CNCc2c(C(C)C)nn(C)c2N(C)C)ccn1	-5.93
CCc1noc(C)c1C(=O)Nc1cnn(CC(=O)NC2CCCC2)c1	-1.44
c1cnc(OCc2nnc3n2CCN(CC2CCOCC2)C3)nc1	-7.25
CC(C)(O)CNC(=O)NCc1nccn1CCc1ccccc1	-1.1
Cc1ncsc1C(=O)NC1CCN(Cc2cccnc2)CC1	0.341
CCOC(=O)Cn1ccc(O)c(Cc2ccc(Cl)cc2Cl)c1=O	0.692
Cc1cc(C)n(-c2ccc(N3CCCSCC3)nc2)n1	-0.674
Cc1nn(C)c2nc(NCCCN3CCCC(C(N)=O)C3)sc12 (stereo unspecified)	-8.69
COCCN1CCC(N(Cc2noc(C3CC3)n2)C(C)=O)C1 (stereo unspecified)	10.7
Cc1ccc(C(=O)N2CCC3(CCCN(c4ncc(F)cn4)C3)C2)cn1 (stereo unspecified)	-5.14

SMILES	cytotoxicity at 70.5 h [%]
Cc1nn2cc(CNc3nccc(CCC(F)(F)F)n3)nc2s1	-9.54
NCc1cc(NCC(c2ccccn2)N2CCOCC2)ncn1 (stereo unspecified)	-6.83
COC(=O)CCNC(=O)c1cc(Br)c2c(c1)OCCO2	-10.5
N#Cc1cc(F)ccc1CN1CCCC1Cn1cccn1 (stereo unspecified)	-5.11
CCN1CCC(CNC(=O)NCc2cc(-c3ccc(C)cc3)no2)C1 (stereo unspecified)	-1.11
O=S(=O)(c1ccccc1)N1CCC2(CCCN2Cc2cccc(Cl)c2)C1 (stereo unspecified)	-11.2
CN(CC(=O)NS(=O)(=O)c1ccsc1)Cc1ccccc1	-6.37
O=C(N1CCOCC1)N1CCN(c2ccncc2Cl)CC1	1.32
Cn1ccc(C(=O)N2CCC[C@]3(C[C@@H](OCc4ccccn4)CO3)C2)n1	-12.2
COCCc1ncc(CN2C[C@H](C3CC3)[C@@H](N)C2)cn1	-8.11
CC(C)c1ccc(C(CN)N2CCc3sccc3C2)cc1 (stereo unspecified)	-2.57
CNC(=O)[C@H]1C[C@@H]2CN(C(=O)c3ccc(C)nc3)C[C@@H]2N1C(C)C	-9.38
CC(C)(C)n1ncc(NCC(O)c2ccccc2C(F)(F)F)c(Cl)c1=O (stereo unspecified)	23.5
O=C1NCc2ccccc2CC12CCCN(CCCc1ccccc1)C2 (stereo unspecified)	-3.38
Cc1nccc([C@H]2C[C@@H]3CCN(S(=O)(=O)C4CC4)C[C@H]3O2)n1	0.462
Oc1ccc(N(CCc2ccccc2)CCn2cncn2)cc1	7.13
O=C(CN1CCC(c2nnc(C(F)(F)F)o2)CC1)Nc1cccc(Cl)c1	19.3
O=C(c1ccoc1)N1CCO[C@]2(CCC[C@@H]2COCc2ccncc2)C1	1.38
C=Cn1ncc(CN2C[C@@H]3CCCN3C[C@H]2CCSC)c1C	-12.3
O=C(NCC1CC1)c1cc2c(s1)CCN2C(=O)c1cccnc1	-8.04
CNC(=O)CN1CCOCC2(CCCN(Cc3ccoc3)C2)C1 (stereo unspecified)	-8.87

SMILES	cytotoxicity at 70.5 h [%]
Cc1nn(CC(=O)Nc2ccc(F)cc2)c(N)c1C#N	-0.498
COCCCOC1CN(C(=O)c2[nH]nc3c2CCCC3)C1	4
O=C(NCCO)c1sc2ncccc2c1C1CNCCO1 (stereo unspecified)	-4.56
O=C(c1ccc[nH]1)N1CC[C@@H](OCC2CC2)[C@@H]1Cc1cccnc1	0.146
c1cncc(CN2CC(Cc3nccc4cc[nH]c34)C2)c1	-3.48
Cc1cccc2[nH]c(C3CCN(C(=O)c4cnc(O)cc4O)CC3)nc12	22.7
CCN(Cc1ccccn1)C1CCN(c2ccccc2)C1=O (stereo unspecified)	-5.06
Cc1[nH]ncc1CCCNC(=O)N1CCN2CCCCC2C1 (stereo unspecified)	8.45
CCCNC(=O)N1CCc2ccc(S(=O)(=O)N3CCCC3)cc2C1	-10.1
Cc1cccc(NC(=O)C2CCc3ccccc3N2)c1 (stereo unspecified)	-0.623
O=C(C1CCOC1)N1CCC2(CCN(Cc3nccs3)CC2)CC1 (stereo unspecified)	-15.1
CCCc1nnc(NC(=O)NC(C)Cn2cccn2)s1 (stereo unspecified)	-0.592
CN(C)c1nccc(C2CCN(C(=O)CO)CC2)n1	13.9
Cc1cc(CN(C)S(=O)(=O)N2CCCC2c2ccc(C)o2)no1 (stereo unspecified)	-9.33
COCCN1CCC(Cc2cncc(-c3ccc(C(=O)O)cc3)n2)CC1	8.54
CC1CCN(S(=O)(=O)NC2CCCCNC2=O)CC1 (stereo unspecified)	-5.25
CN(C)C[C@H]1OC[C@@H]2CCN(S(=O)(=O)c3ccc(F)cc3)C[C@@H]21	-7.32
CN(C)S(=O)(=O)N1CCN(c2ccnc(N3CCCCC3)n2)CC1	-8.18
